Measured values reported in article PMC10924921, “Mi-2β promotes immune evasion in melanoma by activating EZH2 methylation” (Nature Communications, 2024).

Legend:
Test in all cases: biochemical
Set-up in all cases: KINOMEscan active-site competition binding panel (468 kinase assays), per cent of control at 1000 nM
Conditions in all cases: KINOMEscan per cent of control (binding competition); read-out: Percent Control
AMPK-alpha2 = target: T1, AMPK-alpha2 (Homo sapiens, UniProt P54646)
T1 construct: gene PRKAA2
Excerpt: (§1) Figure S7 / Percent Control

CDK9 = CDK9 (Homo sapiens, UniProt P50750)
Excerpt: as §1

CSK = CSK (Homo sapiens, UniProt P41240)
Excerpt: as §1

CSNK1A1 = CSNK1A1 (Homo sapiens, UniProt P48729)
Excerpt: as §1

DRAK1 = target: T2, DRAK1 (Homo sapiens, UniProt Q9UEE5)
T2 construct: gene STK17A
Excerpt: as §1

EGFR(T790M) = EGFR(T790M) (Homo sapiens, UniProt P00533, T790M)
Excerpt: as §1

FER = FER (Homo sapiens, UniProt P16591)
Excerpt: as §1

HCK = HCK (Homo sapiens, UniProt P08631)
Excerpt: as §1

HUNK = HUNK (Homo sapiens, UniProt P57058)
Excerpt: as §1

KIT(V559D,V654A) = KIT(V559D,V654A) (Homo sapiens, UniProt P10721, V559D/V654A)
Excerpt: as §1

MAK = MAK (Homo sapiens, UniProt P20794)
Excerpt: as §1

NEK9 = NEK9 (Homo sapiens, UniProt Q8TD19)
Excerpt: as §1

PAK1 = PAK1 (Homo sapiens, UniProt Q13153)
Excerpt: as §1

PFTK1 = target: T3, PFTK1 (Homo sapiens, UniProt O94921)
T3 construct: gene CDK14
Excerpt: as §1

PHKG1 = PHKG1 (Homo sapiens, UniProt Q16816)
Excerpt: as §1

PIK3CA(E542K) = PIK3CA(E542K) (Homo sapiens, UniProt P42336, E542K)
Excerpt: as §1

PIM1 = PIM1 (Homo sapiens, UniProt P11309)
Excerpt: as §1

PIM2 = PIM2 (Homo sapiens, UniProt Q9P1W9)
Excerpt: as §1

RET = RET (Homo sapiens, UniProt P07949)
Excerpt: as §1

STK33 = STK33 (Homo sapiens, UniProt Q9BYT3)
Excerpt: as §1

STK36 = STK36 (Homo sapiens, UniProt Q9NRP7)
Excerpt: as §1

SgK110 = target: T4, SgK110 (Homo sapiens, UniProt P0C264)
T4 construct: gene SBK3
Excerpt: as §1

TGFBR2 = TGFBR2 (Homo sapiens, UniProt P37173)
Excerpt: as §1

TSSK1B = TSSK1B (Homo sapiens, UniProt Q9BXA7)
Excerpt: as §1

YSK4 = target: T5, YSK4 (Homo sapiens, UniProt Q56UN5)
T5 construct: gene MAP3K19
Excerpt: as §1

Chain of CSNK1A1 (P48729 whole entry): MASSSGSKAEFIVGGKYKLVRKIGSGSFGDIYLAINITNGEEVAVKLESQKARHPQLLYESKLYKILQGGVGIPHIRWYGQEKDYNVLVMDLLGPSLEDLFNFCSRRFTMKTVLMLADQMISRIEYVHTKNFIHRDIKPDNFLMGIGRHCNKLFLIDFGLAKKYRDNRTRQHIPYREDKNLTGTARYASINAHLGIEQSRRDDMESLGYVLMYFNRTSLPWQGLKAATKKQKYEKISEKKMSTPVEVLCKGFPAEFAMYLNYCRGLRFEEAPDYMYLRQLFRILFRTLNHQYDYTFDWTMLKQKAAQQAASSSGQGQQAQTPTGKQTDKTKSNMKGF
T3 sequence (O94921 whole entry): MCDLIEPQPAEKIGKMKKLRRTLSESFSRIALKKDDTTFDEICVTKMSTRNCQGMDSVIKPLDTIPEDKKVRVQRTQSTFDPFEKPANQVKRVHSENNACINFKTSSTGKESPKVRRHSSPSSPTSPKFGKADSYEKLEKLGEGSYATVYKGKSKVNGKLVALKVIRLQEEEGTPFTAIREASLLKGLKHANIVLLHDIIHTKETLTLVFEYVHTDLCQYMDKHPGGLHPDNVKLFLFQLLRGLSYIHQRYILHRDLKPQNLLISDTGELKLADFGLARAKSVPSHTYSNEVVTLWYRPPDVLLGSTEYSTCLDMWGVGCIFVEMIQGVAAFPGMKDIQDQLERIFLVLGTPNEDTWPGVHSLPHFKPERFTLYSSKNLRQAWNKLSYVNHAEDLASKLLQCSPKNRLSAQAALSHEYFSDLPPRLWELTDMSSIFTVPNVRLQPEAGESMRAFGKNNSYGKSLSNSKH
T1 sequence (P54646 whole entry): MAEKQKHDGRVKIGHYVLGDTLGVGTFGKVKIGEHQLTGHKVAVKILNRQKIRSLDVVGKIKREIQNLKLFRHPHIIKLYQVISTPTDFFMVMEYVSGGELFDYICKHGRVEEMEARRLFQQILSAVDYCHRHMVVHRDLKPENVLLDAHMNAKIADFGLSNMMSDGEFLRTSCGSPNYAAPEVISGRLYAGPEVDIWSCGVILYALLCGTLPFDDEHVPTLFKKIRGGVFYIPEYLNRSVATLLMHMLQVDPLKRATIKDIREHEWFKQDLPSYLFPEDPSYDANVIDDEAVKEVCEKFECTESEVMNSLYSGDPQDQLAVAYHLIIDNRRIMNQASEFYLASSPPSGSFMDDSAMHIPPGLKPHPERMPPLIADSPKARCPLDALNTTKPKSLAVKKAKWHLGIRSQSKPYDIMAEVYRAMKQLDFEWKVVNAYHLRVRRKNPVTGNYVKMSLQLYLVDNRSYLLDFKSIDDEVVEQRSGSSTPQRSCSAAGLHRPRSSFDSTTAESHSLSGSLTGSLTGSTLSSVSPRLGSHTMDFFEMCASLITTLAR
Chain of HUNK (P57058 whole entry): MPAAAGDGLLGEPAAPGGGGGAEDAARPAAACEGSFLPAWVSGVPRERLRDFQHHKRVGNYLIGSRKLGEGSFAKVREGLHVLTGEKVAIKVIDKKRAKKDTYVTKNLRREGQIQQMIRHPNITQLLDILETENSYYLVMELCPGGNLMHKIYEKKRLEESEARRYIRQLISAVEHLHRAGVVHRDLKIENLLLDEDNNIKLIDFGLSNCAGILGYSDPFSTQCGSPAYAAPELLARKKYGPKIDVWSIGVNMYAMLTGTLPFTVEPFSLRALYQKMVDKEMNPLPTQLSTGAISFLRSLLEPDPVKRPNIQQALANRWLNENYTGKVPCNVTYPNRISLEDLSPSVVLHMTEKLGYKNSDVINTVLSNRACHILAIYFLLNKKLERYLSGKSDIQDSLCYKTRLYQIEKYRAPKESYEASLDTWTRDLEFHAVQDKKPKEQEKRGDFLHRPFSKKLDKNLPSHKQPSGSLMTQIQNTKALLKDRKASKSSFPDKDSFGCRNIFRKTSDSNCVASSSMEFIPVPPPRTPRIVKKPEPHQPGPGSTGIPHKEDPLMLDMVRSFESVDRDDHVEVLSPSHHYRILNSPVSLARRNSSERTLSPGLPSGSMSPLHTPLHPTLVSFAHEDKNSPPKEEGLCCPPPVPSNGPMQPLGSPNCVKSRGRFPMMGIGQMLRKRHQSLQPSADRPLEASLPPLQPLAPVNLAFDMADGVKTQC
Chain of TGFBR2 (P37173 whole entry): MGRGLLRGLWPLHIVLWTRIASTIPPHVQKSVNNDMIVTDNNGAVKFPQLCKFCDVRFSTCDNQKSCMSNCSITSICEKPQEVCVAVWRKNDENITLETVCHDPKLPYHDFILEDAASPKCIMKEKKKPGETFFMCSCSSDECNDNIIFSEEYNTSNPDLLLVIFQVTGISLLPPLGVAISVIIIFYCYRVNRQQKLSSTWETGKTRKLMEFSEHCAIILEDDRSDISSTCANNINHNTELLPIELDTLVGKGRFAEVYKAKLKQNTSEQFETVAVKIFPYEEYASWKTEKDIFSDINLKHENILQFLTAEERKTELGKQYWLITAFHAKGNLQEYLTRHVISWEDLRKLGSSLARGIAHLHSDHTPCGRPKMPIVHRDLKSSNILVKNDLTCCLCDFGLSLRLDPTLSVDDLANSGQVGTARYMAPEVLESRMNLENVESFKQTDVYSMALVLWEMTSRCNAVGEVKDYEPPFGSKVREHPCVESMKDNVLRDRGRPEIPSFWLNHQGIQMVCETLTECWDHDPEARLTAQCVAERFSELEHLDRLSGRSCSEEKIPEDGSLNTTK
T5 sequence (Q56UN5 whole entry): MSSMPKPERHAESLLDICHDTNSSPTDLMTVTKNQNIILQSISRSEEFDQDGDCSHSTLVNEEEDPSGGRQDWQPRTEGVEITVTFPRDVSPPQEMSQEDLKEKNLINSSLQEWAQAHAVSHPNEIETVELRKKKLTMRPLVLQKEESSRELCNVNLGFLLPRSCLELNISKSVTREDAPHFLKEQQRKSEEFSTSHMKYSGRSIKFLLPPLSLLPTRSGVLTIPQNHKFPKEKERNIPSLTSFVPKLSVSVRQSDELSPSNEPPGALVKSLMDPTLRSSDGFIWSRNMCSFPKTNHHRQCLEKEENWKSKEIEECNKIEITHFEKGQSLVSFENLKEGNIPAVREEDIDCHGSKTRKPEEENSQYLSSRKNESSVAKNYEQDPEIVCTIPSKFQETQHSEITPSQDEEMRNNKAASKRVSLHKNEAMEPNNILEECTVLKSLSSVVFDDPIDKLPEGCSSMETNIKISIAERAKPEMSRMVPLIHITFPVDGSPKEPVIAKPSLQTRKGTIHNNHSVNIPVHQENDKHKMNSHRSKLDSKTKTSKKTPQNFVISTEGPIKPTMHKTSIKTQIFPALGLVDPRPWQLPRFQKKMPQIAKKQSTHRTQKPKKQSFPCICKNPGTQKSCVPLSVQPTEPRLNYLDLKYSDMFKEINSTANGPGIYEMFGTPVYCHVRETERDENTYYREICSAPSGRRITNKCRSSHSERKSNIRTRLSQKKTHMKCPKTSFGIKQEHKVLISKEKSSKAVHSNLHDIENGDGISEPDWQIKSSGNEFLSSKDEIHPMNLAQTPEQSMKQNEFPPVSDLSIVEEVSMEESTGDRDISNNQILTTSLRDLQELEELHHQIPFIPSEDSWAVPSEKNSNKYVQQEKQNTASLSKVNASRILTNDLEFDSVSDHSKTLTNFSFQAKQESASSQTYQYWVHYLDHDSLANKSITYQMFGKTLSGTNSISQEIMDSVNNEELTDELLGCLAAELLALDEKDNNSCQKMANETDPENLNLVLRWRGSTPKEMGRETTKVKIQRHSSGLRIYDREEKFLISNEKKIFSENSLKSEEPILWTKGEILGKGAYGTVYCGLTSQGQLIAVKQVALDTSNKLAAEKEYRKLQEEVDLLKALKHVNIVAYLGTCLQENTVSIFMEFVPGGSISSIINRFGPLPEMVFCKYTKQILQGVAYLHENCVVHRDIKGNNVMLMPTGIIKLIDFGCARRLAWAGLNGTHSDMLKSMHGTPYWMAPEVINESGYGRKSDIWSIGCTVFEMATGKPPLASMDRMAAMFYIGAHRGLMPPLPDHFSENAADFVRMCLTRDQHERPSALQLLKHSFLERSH
T2 sequence (Q9UEE5 whole entry): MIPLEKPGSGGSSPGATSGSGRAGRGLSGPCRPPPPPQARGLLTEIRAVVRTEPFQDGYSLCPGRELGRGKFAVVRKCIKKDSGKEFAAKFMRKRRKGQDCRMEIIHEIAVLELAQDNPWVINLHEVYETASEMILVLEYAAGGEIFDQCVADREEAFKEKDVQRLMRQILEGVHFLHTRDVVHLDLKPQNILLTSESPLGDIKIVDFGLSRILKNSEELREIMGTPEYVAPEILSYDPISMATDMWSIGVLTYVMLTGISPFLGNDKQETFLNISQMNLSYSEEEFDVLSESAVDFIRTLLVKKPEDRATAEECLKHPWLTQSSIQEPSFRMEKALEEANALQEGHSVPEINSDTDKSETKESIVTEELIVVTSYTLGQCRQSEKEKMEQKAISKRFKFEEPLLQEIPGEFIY
Chain of PAK1 (Q13153 whole entry): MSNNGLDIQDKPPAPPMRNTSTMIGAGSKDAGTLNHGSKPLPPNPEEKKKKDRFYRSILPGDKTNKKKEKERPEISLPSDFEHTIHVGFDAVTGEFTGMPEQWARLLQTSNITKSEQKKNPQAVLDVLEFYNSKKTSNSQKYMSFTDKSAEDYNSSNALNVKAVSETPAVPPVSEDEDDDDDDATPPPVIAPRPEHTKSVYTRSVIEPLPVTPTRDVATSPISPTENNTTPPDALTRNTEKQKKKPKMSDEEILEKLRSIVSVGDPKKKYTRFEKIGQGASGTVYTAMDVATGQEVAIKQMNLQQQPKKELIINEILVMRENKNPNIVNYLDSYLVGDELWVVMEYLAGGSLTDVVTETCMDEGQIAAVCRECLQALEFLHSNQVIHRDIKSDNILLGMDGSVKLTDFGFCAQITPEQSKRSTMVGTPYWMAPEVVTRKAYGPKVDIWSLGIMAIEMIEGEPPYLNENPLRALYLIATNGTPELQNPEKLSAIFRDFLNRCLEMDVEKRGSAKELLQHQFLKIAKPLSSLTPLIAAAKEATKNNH

**Q.** `Cn1c(=O)[nH]c2ccc(-c3cccc(C(=O)NC4CCn5ccnc5C4)c3)cc21` (stereo not shown) [Z36-MP5] was tested. Which remaining binding at 1 µM (AMPK-alpha2) did it give?
**A.** 93%

**Q.** What about the remaining binding at 1 µM (CDK9) of the same molecule?
**A.** 37%

**Q.** What about the remaining binding at 1 µM (CSK) of the same molecule?
**A.** 98%

**Q.** What about the remaining binding at 1 µM (CSNK1A1) of the same molecule?
**A.** 74%

**Q.** And the remaining binding at 1 µM (DRAK1)?
**A.** 96%

**Q.** What about the remaining binding at 1 µM (EGFR(T790M)) of the same molecule?
**A.** 44%

**Q.** And the remaining binding at 1 µM (FER)?
**A.** 90%

**Q.** And the remaining binding at 1 µM (HCK)?
**A.** 95%

**Q.** And the remaining binding at 1 µM (HUNK)?
**A.** 74%

**Q.** And the remaining binding at 1 µM (KIT(V559D,V654A))?
**A.** 76%

**Q.** What about the remaining binding at 1 µM (MAK) of the same molecule?
**A.** 88%

**Q.** What about the remaining binding at 1 µM (NEK9) of the same molecule?
**A.** 83%

**Q.** What about the remaining binding at 1 µM (PAK1) of the same molecule?
**A.** 87%

**Q.** And the remaining binding at 1 µM (PFTK1)?
**A.** 98%

**Q.** And the remaining binding at 1 µM (PHKG1)?
**A.** 90%

**Q.** What about the remaining binding at 1 µM (PIK3CA(E542K)) of the same molecule?
**A.** 70%

**Q.** What about the remaining binding at 1 µM (PIM1) of the same molecule?
**A.** 90%

**Q.** And the remaining binding at 1 µM (PIM2)?
**A.** 91%

**Q.** And the remaining binding at 1 µM (RET)?
**A.** 67%

**Q.** What about the remaining binding at 1 µM (STK33) of the same molecule?
**A.** 92%

**Q.** And the remaining binding at 1 µM (STK36)?
**A.** 77%

**Q.** What about the remaining binding at 1 µM (SgK110) of the same molecule?
**A.** 97%

**Q.** What about the remaining binding at 1 µM (TGFBR2) of the same molecule?
**A.** 94%

**Q.** What about the remaining binding at 1 µM (TSSK1B) of the same molecule?
**A.** 92%

**Q.** And the remaining binding at 1 µM (YSK4)?
**A.** 85%
